Data published in patent publication US20210284668A1, “GOLD (I)-PHOSPHINE 1,2,3-TRIAZOLE DERIVATIVES WITH ANTIBIOTIC PROPERTIES” (Centre National de la Recherche Scientifique, priority 2018, published 2021).
Values joined by “and” are separate entries in the source; they are usually repeats but may differ in a detail not shown here. Identical values can stand only once.

Legend:
S. epidermidis ATCC35984 = assay: MIC by microdilution, S. epidermidis ATCC35984; type: cell-based, Staphylococcus epidermidis; conditions: S. epidermidis ATCC35984 (MecA positive), in duplicate
How it was run: (§1)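 Broth microdilution per CLSI document M07-A10, Mueller-Hinton medium, each MIC run in duplicate. Strains include E. coli ATCC25922 (wild-type), S. epidermidis ATCC35984 (MecA positive) and S. aureus ATCC700699 (MecA positive, glycopeptide resistant), within a mixed panel of susceptible and resistant Gram-positive/Gram-negative bacteria.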

E. faecalis JH2-2 = assay: MIC by microdilution, E. faecalis JH2-2; type: cell-based, Enterococcus faecalis; set-up: unit not given here; conditions: E. faecalis JH2-2 (wild-type), in duplicate
How it was run: (§2)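 Broth microdilution per CLSI (M07-A10) in Mueller-Hinton broth, run in duplicate; MIC recorded as minimal inhibitory concentration. Panel spans wild-type to multidrug-resistant strains, e.g. S. aureus ATCC700699 (MecA+, glycopeptide resistant), S. epidermidis ATCC35984 (MecA+), E. coli ATCC25922 (wild-type).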

E. faecalis UCN41 = assay: MIC by microdilution, E. faecalis UCN41; type: cell-based, Enterococcus faecalis; set-up: unit not given here; conditions: E. faecalis UCN41 (VanA positive, glycopeptide resistant), in duplicate
How it was run: as §2

[1] = tested on: panel of Gram-positive and Gram-negative strains; assay: Antibacterial profile on the selected panel of strains; type: cell-based; conditions: summary of Tables 1-12
How it was run: as §1

E. faecium AUS0004 = assay: MIC by microdilution, E. faecium AUS0004; type: cell-based, Enterococcus faecium; conditions: E. faecium AUS0004 (VanB positive, glycopeptide resistant), in duplicate
How it was run: as §2

S. aureus ATCC700699 = assay: MIC by microdilution, S. aureus ATCC700699; type: cell-based, Staphylococcus aureus; set-up: unit not given here; conditions: S. aureus ATCC700699 (MecA positive, glycopeptide resistant), in duplicate
How it was run: as §1

S. aureus ATCC29213 = assay: MIC by microdilution, S. aureus ATCC29213; type: cell-based, Staphylococcus aureus; conditions: S. aureus ATCC29213 (MecA negative, wild-type), Mueller-Hinton broth, in duplicate
Procedure: The antibacterial profile of each derivative was evaluated by the standard microdilution method for susceptibility testing on 16 different strains, following the guidelines of CLSI. The selected panel included: • S. aureus ATCC25923 (MecA negative, wild-type) • S. aureus ATCC29213 (MecA negative, wild-type) • S. aureus ATCC700699 (MecA positive, glycopeptide resistant) • S. aureus ST20131365 (MecA positive, glycopeptide resistant) • S. epidermidis ATCC14990 (MecA negative, wild-type) • S. epidermidis ATCC35984 (MecA positive) • S. epidermidis ST20140436 (MecA positive, glycopeptide resistant) • S. epidermidis ST20150446 (MecA positive, glycopeptide resistant) • E. faecalis JH2-2 (wild-type) • E. faecalis UCN41 (VanA positive, glycopeptide resistant) • E. faecalis V583 (VanB positive, glycopeptide resistant) • E. faecium ATCC19434T (wild-type) • E. faecium BM4147 (VanA positive, glycopeptide resistant) • E. faecium AUS0004 (VanB positive, glycopeptide resistant) • E. coli ATCC25922 (wild-type) • Clostridium difficile ATCC9689 (wild-type)
Both series issued from the SAR study were evaluated for their antibacterial activity on a panel of characterized strains obtained from the French National Reference Centers for Staphylococci (Lyon, Pr. Fréderique Laurent) and for Enterococci (Caen, Pr. Vincent Cattoir), respectively. As shown in the following tables, both series contain very active compounds on multi-resistant Gram-positive bacteria (Minimal Inhibitory Concentrations lower than comparator antibiotic ampicillin). Furthermore, a very important antibacterial effect has been shown too on a strain of Clostridium difficile, a Gram-positive, spore-forming, bacillus responsible for post-antibiotic diarrhoae.
The antibacterial activity of test compounds was evaluated on a selected panel of Gram-positive (4 Staphylococcus aureus, 4 Staphylococcus epidermidis, 3 Enterococcus faecalis, 3 Enterococcus faecium, 1 Clostridium difficile) and Gram-negative strains (1 Escherichia coli, 1 Klebsiella pneumoniae, 1 Pseudomonas aeruginosa, 1 Acinetacter baumannii) with known features of antibiotic resistance (from wild-type susceptibility to multi-drug resistance). The Minimal Inhibitory Concentration (MIC) of test compounds was determined in duplicate by the microdilution method in 96-well microplates with a final volume of 100 μL per well and Mueller-Hinton broth as the growth medium, as recommended by the CLSI (Clinical and Laboratory Standards Institute, document Mo7-A10, USA).

S. aureus ATCC25923 = assay: MIC by microdilution, S. aureus ATCC25923; type: cell-based, Staphylococcus aureus; conditions: S. aureus ATCC25923 (MecA negative, wild-type), Mueller-Hinton broth, in duplicate
How it was run: as §2

E. faecalis V583 = assay: MIC by microdilution, E. faecalis V583; type: cell-based, Enterococcus faecalis; conditions: E. faecalis V583 (VanB positive, glycopeptide resistant), in duplicate
How it was run: as §1

[2] = tested on: Clostridium difficile ATCC700057; assay: MIC by microdilution, Clostridium difficile; type: cell-based; conditions: strain ATCC70057 [sic] (Tables 1-2) / ATCC700057 (Tables 3-10), in duplicate
E. faecium BM4147 = assay: MIC by microdilution, E. faecium BM4147; type: cell-based, Enterococcus faecium; set-up: unit not given here; conditions: E. faecium BM4147 (VanA positive, glycopeptide resistant), in duplicate
How it was run: as §2

[3] = tested on: S. epidermidis ST20140436; assay: MIC by microdilution, S. epidermidis ST20140436; type: cell-based, Staphylococcus epidermidis; conditions: S. epidermidis ST20140436 (MecA positive, glycopeptide resistant), in duplicate
How it was run: as §2

S. aureus ST20131365 = assay: MIC by microdilution, S. aureus ST20131365; type: cell-based, Staphylococcus aureus; conditions: S. aureus ST20131365 (MecA positive, glycopeptide resistant), in duplicate
How it was run: as §1

E. coli ATCC25922 = assay: MIC by microdilution, E. coli ATCC25922; type: cell-based, Escherichia coli; conditions: E. coli ATCC25922 (wild-type), in duplicate
How it was run: as §1

S. epidermidis ATCC14990 = assay: MIC by microdilution, S. epidermidis ATCC14990; type: cell-based, Staphylococcus epidermidis; conditions: S. epidermidis ATCC14990 (MecA negative, wild-type), in duplicate
How it was run: as §1

E. faecium ATCC19434T = assay: MIC by microdilution, E. faecium ATCC19434T; type: cell-based, Enterococcus faecium; set-up: unit not given here; conditions: E. faecium ATCC19434T (wild-type), in duplicate
How it was run: as §2

[4] = tested on: S. epidermidis ST20150446; assay: MIC by microdilution, S. epidermidis ST20150446; type: cell-based, Staphylococcus epidermidis; conditions: S. epidermidis ST20150446 (MecA positive, glycopeptide resistant), in duplicate
How it was run: as §2

| SMILES | Minimal Inhibitory Concentration (MIC) (S. epidermidis ATCC35984) | Minimal Inhibitory Concentration (MIC) (E. faecalis JH2-2) | Minimal Inhibitory Concentration (MIC) (E. faecalis UCN41) | antimicrobial / antibacterial activity (in words) [1] | Minimal Inhibitory Concentration (MIC) (E. faecium AUS0004) | Minimal Inhibitory Concentration (MIC) (S. aureus ATCC700699) | Minimal Inhibitory Concentration (MIC) (S. aureus ATCC29213) | Minimal Inhibitory Concentration (MIC) (S. aureus ATCC25923) | Minimal Inhibitory Concentration (MIC) (E. faecalis V583) | Minimal Inhibitory Concentration (MIC) [2] | Minimal Inhibitory Concentration (MIC) (E. faecium BM4147) | Minimal Inhibitory Concentration (MIC) [3] | Minimal Inhibitory Concentration (MIC) (S. aureus ST20131365) | Minimal Inhibitory Concentration (MIC) (E. coli ATCC25922) | Minimal Inhibitory Concentration (MIC) (S. epidermidis ATCC14990) | Minimal Inhibitory Concentration (MIC) (E. faecium ATCC19434T) | Minimal Inhibitory Concentration (MIC) [4] |
| --- | --- | --- | --- | --- | --- | --- | --- | --- | --- | --- | --- | --- | --- | --- | --- | --- | --- |
| CC[P+](CC)(CC)[Au-][c]1nn[nH]c1COC(=O)N1CCC[C@@H]1C(=O)O [TMB28] | ≤0.06 | 0.25 | 0.25 | have antimicrobial activity | 0.5 | 0.125 | 0.25 | 0.125 | 0.25 | 0.125 and 0.25 | 0.5 | 0.125 | 0.25 and 0.5 | >8 | ≤0.06 | 0.25 | 0.125 |
| CC1(C)S[C@@H]2[C@H](NC(=O)[C@H](NC(=O)OCc3cnn[nH]3)c3ccccc3)C(=O)N2[C@H]1C(=O)O [TMB5] | >8 | 2 and 4 | 8 | do not show an antibacterial activity | >8 | >8 | 2 | 2 | 4 | 4 | >8 | 8/>8 | >8 | >8 | 1 | 8 | >8 |
| CC[P+](CC)(CC)[Au-][c]1nn[nH]c1CCC(=O)NC(C(=O)NC1C(=O)N2C1SC(C)(C)C2C(=O)O)c1ccccc1 (centres unmarked) [TMB4] | ≤0.06 | – | 0.5 | have antimicrobial activity | 0.5 | 0.125 | 0.125 | 0.125 | 0.5 | ≤0.06-0.125 | 1 | ≤0.06 | 0.125 | >8 | ≤0.06 | 0.5 | 0.125 |
| CC[P+](CC)(CC)[Au-][c]1nn[nH]c1CCCO [TMB34] | ≤0.06 | 0.125 | 0.125 | have antimicrobial activity | 0.125 | ≤0.06 | ≤0.06 | ≤0.06 | 0.125 | ≤0.06 | 0.125 | ≤0.06 | ≤0.06 | >8 | ≤0.06 | 0.125 | ≤0.06 |
| CC1(C)S[C@@H]2[C@H](NC(=O)[C@H](N)c3ccccc3)C(=O)N2[C@H]1C(=O)O [Ampi, ampicillin, reference compound] | >8 | – | – | – | >8 | – | 0.5 | – | 0.5 | 0.5 and 0.5-1 and 0.25 | 4 and 8 | 4 and 8 | 4 | 2 | – | 0.5 | 8 and 4 |
| CC[P+](CC)(CC)[Au-][c]1nn[nH]c1CCC(=O)O [TMB19] | ≤0.06 | 0.125 and 0.25 | 0.125 and 0.25 | have antimicrobial activity | 0.125 | 0.125 and 0.25 | 0.125 | – | 0.125 and 0.25 | ≤0.06 | 0.25 | ≤0.06 | 0.125 | >8 | ≤0.06 | 0.125 and 0.25 | ≤0.06 |
| CC[P+](CC)(CC)[Au-][c]1nn[nH]c1COC(=O)N[C@@H](CCCNC(=N)N[N+](=O)[O-])C(=O)O [TMB35] | – | 1 | 1 | have antimicrobial activity | 1 | 0.25 | 0.25 | 0.125 | 1 | 0.125 | 1 | 0.125 | 0.25 | >8 | ≤0.06 | 0.5 | 0.125 and 0.25 |
